SMILES strings stand for the structures. Several values for one entry are separate records, joined by “and”; a condition that tells them apart may be missing. Equal entries are not always repeated.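 In this assay, cells in 96-well plates receive the compound at five concentrations for 48 hours. Endpoints are linearly interpolated between the surrounding concentrations. The concentration for 50% growth inhibition is given as GI50. TGI: concentration producing complete growth inhibition.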

Some test systems named below: DLD-1 colon; NCI-H460 lung; NCI-H522 lung; CCRF-CEM leukemia; 786-0 renal; HCC-2998 colon; OVCAR-8 ovarian; SNB-75 CNS; M14 melanoma; CAKI-1 renal.
What all share (assay): inhibition of tumour cell growth, NCI panel, 48 h

As to `CC1c2c(Cl)nc3ccccc3c2Oc2c1c(Cl)nc1ccccc21`, the TGI in the assay on DLD-1 colon, in the assay with NCI-H460 lung, with NCI-H522 lung, with CCRF-CEM leukemia, in the assay on 786-0 renal and in the assay on HCC-2998 colon was > 100 µM throughout. Further, the TGI in the assay with OVCAR-8 ovarian and in the assay on SNB-75 CNS was > 100 µM in each case.

Regarding `O=C1/C(=C/c2ccc(Cl)cc2)CCC1CCN1CCOCC1` (centres undefined), the TGI with DLD-1 colon, in the assay on M14 melanoma, with NCI-H460 lung, in the assay with CCRF-CEM leukemia, in the assay with 786-0 renal and in the assay on CAKI-1 renal was > 100 µM each time. The TGI in the assay on HCC-2998 colon, in the assay on OVCAR-8 ovarian and with SNB-75 CNS was > 100 µM throughout.

Consider `COC(=O)C(Cc1nc2ccc(Cl)cc2[nH]c1=O)/C(=N\N)C(=O)Nc1cc(C)c(Cl)cc1S(=O)(=O)O` (centres undefined), for which the TGI in the assay on DLD-1 colon, with M14 melanoma, in the assay on NCI-H460 lung, in the assay with NCI-H522 lung, in the assay with CCRF-CEM leukemia and with 786-0 renal was > 100 µM throughout. Moreover, the TGI in the assay on CAKI-1 renal, in the assay with HCC-2998 colon and with OVCAR-8 ovarian was > 100 µM in each case.

With `[N-]=[N+]=N[C@H]1C[C@@H](CO)O[C@H]1n1cnc2c(N)ncnc21`, the TGI in the assay on DLD-1 colon, in the assay with M14 melanoma, in the assay with NCI-H460 lung, in the assay on NCI-H522 lung, in the assay with 786-0 renal and with CAKI-1 renal was > 100 µM in each case. In addition, the TGI in the assay on HCC-2998 colon, with OVCAR-8 ovarian and with SNB-75 CNS was > 100 µM in each case.

As for `COC1(OC)C(N(C)C)=C(Cl)C(=O)/C1=C/C=O`, the TGI was > 100 µM in the assay with DLD-1 colon; > 100 µM in the assay with M14 melanoma; > 100 µM with NCI-H460 lung; 98.2 µM in the assay on CCRF-CEM leukemia; > 100 µM with 786-0 renal; > 100 µM in the assay with CAKI-1 renal. The TGI with HCC-2998 colon and in the assay with OVCAR-8 ovarian was > 100 µM throughout.

For the molecule `CC1CN(C(=O)CN2CCC(CCCCN(C)C)CC2)c2ccccc2NC1=O` (centres undefined), the TGI in the assay on DLD-1 colon, in the assay on M14 melanoma, with NCI-H460 lung, in the assay on CCRF-CEM leukemia, with 786-0 renal and in the assay on CAKI-1 renal was > 100 µM in each case. The TGI in the assay with HCC-2998 colon was > 100 µM.

Turning to `CCOc1ccccc1NC(=O)C(=O)CC(=O)c1sc(Nc2nnc(-c3ccc(Cl)c(Cl)c3)o2)nc1C`, the TGI in the assay on DLD-1 colon, in the assay with M14 melanoma, in the assay on NCI-H460 lung, with CCRF-CEM leukemia, in the assay with 786-0 renal and in the assay with CAKI-1 renal was > 100 µM each time. Also, the TGI in the assay on HCC-2998 colon, in the assay with OVCAR-8 ovarian and in the assay on SNB-75 CNS was > 100 µM in each case.

On to `CN1C(=O)N(C)C2C1NN=c1s/c(=C\c3ccc(Cl)cc3Cl)c(=O)n12` (centres undefined), for which the GI50 with M14 melanoma was 0.167 µM; with NCI-H460 lung it was 0.199 µM; in the assay on NCI-H522 lung, 0.0958 µM; with CCRF-CEM leukemia it was 0.262 µM; in the assay with 786-0 renal it was 0.703 µM; in the assay with CAKI-1 renal, 0.0608 µM. The GI50 was 0.281 µM in the assay with HCC-2998 colon, 0.399 µM with OVCAR-8 ovarian and 0.0274 µM in the assay with SNB-75 CNS. For the same molecule, the TGI in the assay with M14 melanoma is > 37.9 µM; with NCI-H460 lung, > 94.3 µM; with NCI-H522 lung it was > 57.8 µM; in the assay on CCRF-CEM leukemia, > 100 µM; in the assay on 786-0 renal, > 48.8 µM; in the assay on CAKI-1 renal, > 62.3 µM. Also, the TGI in the assay with HCC-2998 colon was 15.5 µM; in the assay on OVCAR-8 ovarian it was > 100 µM; with SNB-75 CNS, 2.32 µM.

As to `CCN1CCC(O)(c2ccc(OC)cc2)C(C(=O)c2ccc(OC)cc2)C1` (centres undefined), the TGI was determined as 36.3 µM with DLD-1 colon; 29.7 µM in the assay on M14 melanoma; 59.5 µM with NCI-H460 lung; 4.06 µM in the assay on NCI-H522 lung; 26.8 µM with 786-0 renal; 31.3 µM in the assay on CAKI-1 renal. Also, the TGI was 41.2 µM in the assay with HCC-2998 colon, 43.4 µM in the assay with OVCAR-8 ovarian and 30.6 µM with SNB-75 CNS.

Turning to `O=C1/C(=C/c2ccc3c(c2)OCO3)SC2C=Nc3ccccc3N12` (centres undefined), the TGI in the assay on DLD-1 colon, in the assay with M14 melanoma, with NCI-H460 lung, with NCI-H522 lung, with 786-0 renal and with CAKI-1 renal was > 100 µM each time. The TGI with HCC-2998 colon, with OVCAR-8 ovarian and in the assay with SNB-75 CNS was > 100 µM throughout.

For the molecule `CCOc1ccc(NC(=O)C(=O)CC(=O)c2c(C)n([O-])c3ccccc3[n+]2=O)cc1`, the TGI in the assay with M14 melanoma, in the assay on NCI-H460 lung, in the assay with NCI-H522 lung, in the assay with CCRF-CEM leukemia, with 786-0 renal and with CAKI-1 renal was > 100 µM each time. Also, the TGI in the assay on HCC-2998 colon, with OVCAR-8 ovarian and with SNB-75 CNS was > 100 µM each time.

Turning to `COc1cc(NCc2ccc3nc(N)nc(N)c3c2C)cc(OC)c1OC` (tested in a mixture with another compound), the TGI was determined as 95.6 µM in the assay on DLD-1 colon, 34.8 µM in the assay on NCI-H460 lung, 86 µM in the assay on CCRF-CEM leukemia and 52.7 µM with SNB-75 CNS. The GI50 was 0.0222 µM and 0.025 µM in the assay on M14 melanoma; 0.000169 µM in the assay with NCI-H460 lung; 0.0145 µM and 0.025 µM in the assay with 786-0 renal; 0.00957 µM in the assay on HCC-2998 colon.

For `CC(=O)Oc1c2c(c(O)c3ccccc13)C(n1cnc3c(ncn3C3OC(CO)C4OC(C)(C)OC43)c1=N)CCC2` (centres undefined), the TGI in the assay on DLD-1 colon is 27.4 µM; with NCI-H460 lung, 62.4 µM; with NCI-H522 lung it was 19.3 µM; in the assay on CCRF-CEM leukemia, 25.3 µM; in the assay with 786-0 renal, 27.8 µM; with CAKI-1 renal, 50.1 µM. For the same molecule, the TGI with HCC-2998 colon came out at 28.4 µM; with OVCAR-8 ovarian, 23.9 µM; in the assay with SNB-75 CNS, 32.3 µM.

As to `COc1ccc(/C=C2/N=C(c3ccccc3)N(c3c(C)n(C)n(-c4ccccc4)c3=O)C2=O)cc1OC`, the GI50 is > 100 µM in the assay on M14 melanoma; > 100 µM with NCI-H460 lung; > 100 µM in the assay with NCI-H522 lung; > 100 µM in the assay on CCRF-CEM leukemia; > 100 µM in the assay with 786-0 renal; 37.1 µM in the assay with CAKI-1 renal. Besides, the GI50 is > 100 µM in the assay with HCC-2998 colon, > 100 µM with OVCAR-8 ovarian and 86.4 µM in the assay on SNB-75 CNS. Besides, the TGI in the assay on M14 melanoma, in the assay with NCI-H460 lung, in the assay on NCI-H522 lung, in the assay on CCRF-CEM leukemia, in the assay with 786-0 renal and in the assay with CAKI-1 renal was > 100 µM throughout. Further, the TGI in the assay on HCC-2998 colon, with OVCAR-8 ovarian and with SNB-75 CNS was > 100 µM throughout.

The record behind these values is PubChem BioAssay (NCI).
